Glass transition temperature data for 65 compounds are collected here from the PolyMetriX glass transition set.

In the case of `*/C=C(/*)c1cccc[c]1[Ge]([CH3])([CH3])[CH3]` (repeat unit), the glass transition temperature worked out at 180.00 °C.
`*C(=O)OCCCSCCCCCCSCCCOC(=O)c1ccc(N2C(=O)c3ccc(*)cc3C2=O)cc1` (repeat unit): the glass transition temperature is 31.00 °C.
As for `*C(=O)OCCOC(=O)N1CCN(*)CC1` (repeat unit), the glass transition temperature amounted to 60.00 °C.
For `*CC#CC#CCOc1ccc(C(=O)OCCN(CCOC(=O)c2ccc(O*)cc2)c2ccc(/N=N/c3ccc([N+](=O)[O-])cc3)cc2)cc1` (repeat unit) the value was 100.00 °C.
`*CCCCCCCCOC(=O)c1ccc(C(=O)O*)cc1` (repeat unit): the glass transition temperature was found to be 45.00 °C.
The figure for `*CCCCCCCCOC(=O)c1ccc2cc(C(=O)O*)ccc2c1` (repeat unit) is 60.00 °C.
For the compound `*CCCCCCCCOC(=O)c1cccc(C(=O)O*)c1` (repeat unit), the glass transition temperature was -9.00 °C.
For `*CCCCCCCCOc1ccc(CCc2ccc(O*)cc2C)cc1` (repeat unit) the value was -12.00 °C; for `*CCCCCCCOC(=O)c1ccc(C(=O)O*)cc1` (repeat unit), -1.00 °C.
The figure for `*CCCCCCCOc1ccc(-c2ccc(O*)c3ccccc23)c2ccccc12` (repeat unit) is 129.50 °C; for `*CCCCCCCOc1ccc(CCc2ccc(O*)cc2C)cc1` (repeat unit) it is 6.50 °C; for `*CCCCCCOC(=O)C(CCCCCBr)C(=O)OCCCCCCOc1ccc(-n2on2-c2ccc(O*)cc2)cc1` (repeat unit) it is 7.00 °C.
For `*CCCCCCOC(=O)C(CCCCCCCCCCBr)C(=O)OCCCCCCOc1ccc(-n2on2-c2ccc(O*)cc2)cc1` (repeat unit) the value was 16.00 °C.
`*CCCCCCOC(=O)C(CCCCCCP(=O)(O)O)C(=O)OCCCCCCOc1ccc(-n2on2-c2ccc(O*)cc2)cc1` (repeat unit) showed a glass transition temperature of 21.00 °C.
Compound `*CCCCCCOC(=O)OCCCCCCCCOC(=O)OCCCCCCOc1ccc(Oc2ccc(O*)cc2)cc1` (repeat unit) returned a glass transition temperature of -17.00 °C.
The figure for `*CCCCCCOC(=O)OCCCCCCN1C(=O)c2ccc(-c3ccc(-c4ccc5c(c4)C(=O)N(*)C5=O)cc3)cc2C1=O` (repeat unit) is 73.00 °C.
For `*CCCCCCOC(=O)OCCCCCOC(=O)OCCCCCCOc1ccc(C(=O)c2ccc(O*)cc2)cc1` (repeat unit) the value was -0.20 °C; for `*CCCCCCOC(=O)c1ccc(C(=O)O*)cc1` (repeat unit), 13.00 °C; for `*CCCCCCOC(=O)c1cccc(C(=O)O*)c1` (repeat unit), 5.50 °C.
The figure for `*CCCCCCOc1ccc(/C=C/c2ccc(O*)cc2)cc1` (repeat unit) is 76.00 °C; for `*CCCCCCOc1ccc(/C=C2\CC/C(=C\c3ccc(OCCCCCCOP(=O)(O*)OCC)c(OC)c3)C2=O)cc1OC` (repeat unit) it is 75.00 °C.
The compound `*CCCCCOC(=O)O*` (repeat unit) gave a glass transition temperature of -42.9 °C.
Compound `*CCCCCOC(=O)OCCCCCN1C(=O)c2ccc(C(=O)c3ccc4c(c3)C(=O)N(*)C4=O)cc2C1=O` (repeat unit) registered a glass transition temperature of 77.00 °C.
The figure for `*CCCCCOC(=O)c1ccc(-c2ccc(C(=O)O*)cc2)cc1` (repeat unit) is 47.50 °C; for `*CCCCCOC(=O)c1ccc(C(=O)O*)cc1` (repeat unit) it is 16.00 °C; for `*CCCCCOC(=O)c1ccc2cc(C(=O)O*)ccc2c1` (repeat unit) it is 58.50 °C.
The figure for `*CCCCCOc1ccc(-c2ccc(O*)c3ccccc23)c2ccccc12` (repeat unit) is 151.00 °C; for `*CCCCOC(=O)C1CCC(C(=O)O*)CC1` (repeat unit) it is -10.50 °C.
The compound `*CCCCOC(=O)OCCCCN1C(=O)c2ccc(-c3ccc4c(c3)C(=O)N(*)C4=O)cc2C1=O` (repeat unit) registered a glass transition temperature of 104.00 °C.
For `*CCCCOC(=O)c1ccc(-c2ccc(C(=O)O*)cc2)cc1` (repeat unit) the value was 70.00 °C; for `*CCCCOCCCCOCCCCOC(=O)c1ccc(/N=C/c2ccc(/C=N/c3ccc(C(=O)O*)cc3)cc2)cc1` (repeat unit), -13.20 °C.
For `*CCCCOc1ccc(-c2ccc(O*)c3ccccc23)c2ccccc12` (repeat unit) the value was 130.00 °C; for `*CCCCOc1ccc(/C=C2\CC/C(=C\c3ccc(OCCCCOP(=O)(O*)OCC)c(OC)c3)C2=O)cc1OC` (repeat unit), 79.00 °C.
The figure for `*CCCCOc1ccc(CCc2ccc(O*)cc2C)cc1` (repeat unit) is 24.90 °C; for `*CCCCOc1ccc(OCCCCc2nnc(-c3ccc(-c4nnc(*)o4)cc3)o2)c(C)c1` (repeat unit) it is 129.00 °C.
`*CCCOC(=O)C1CCC(C(=O)O*)CC1` (repeat unit) came in with a glass transition temperature of -6.00 °C.
The figure for `*CCCOC(=O)OCCCCCCOC(=O)OCCCN1C(=O)c2ccc(C(=O)c3ccc4c(c3)C(=O)N(*)C4=O)cc2C1=O` (repeat unit) is 70.00 °C; for `*CCCOC(=O)c1ccc2cc(C(=O)O*)ccc2c1` (repeat unit) it is 88.00 °C.
`*CCCOc1ccc(-c2ccc(O*)c3ccccc23)c2ccccc12` (repeat unit): the glass transition temperature came out at 182.00 °C.
`*CCCS(=O)(=O)CCCCS(=O)(=O)CCCOC(=O)O*` (repeat unit): the glass transition temperature worked out at 43.00 °C.
`*CCCS(=O)(=O)CCCCS(=O)(=O)CCCOC(=O)c1ccccc1C(=O)O*` (repeat unit) had a glass transition temperature of 49.00 °C.
The compound `*CCN(CCOC(=O)c1cccc(C(=O)O*)c1)c1ccccc1` (repeat unit) came in with a glass transition temperature of 60.00 °C.
Consider `*CCOC(=O)c1ccc(-c2ccc(-c3ccc(C(=O)O*)cc3)cc2)cc1` (repeat unit), for which the glass transition temperature turned out to be 180.00 °C.
Take `*CCOC(=O)c1ccc2ccc(C(=O)O*)cc2c1` (repeat unit): the glass transition temperature was 119.00 °C.
The figure for `*CCOC(=O)c1cccc(C(=O)O*)c1` (repeat unit) is 58.00 °C; for `*CCOCCOC(=O)c1ccc(-c2ccc(C(=O)O*)cc2)cc1` (repeat unit) it is 50.00 °C.
The figure for `*CCOCCOC(=O)c1ccccc1C(=O)O*` (repeat unit) is -50.00 °C.
As for `*OC(=O)OCCCCOC(=O)OC1COC2C(*)COC12` (repeat unit), the glass transition temperature amounted to 49.00 °C.
For `*OC1CCC(OC(=O)OCCCCCCCOC(*)=O)CC1` (repeat unit) the value was -5.00 °C; for `*OC1CCC(OC(=O)OCCCCCOC(*)=O)CC1` (repeat unit), -5.00 °C; for `*OC1CCC(OC(=O)OCCCCOC(*)=O)CC1` (repeat unit), 30.00 °C.
The figure for `*OCCOC(=O)CCCC(=O)OCCOc1nc(-c2ccc(OC)cc2)nc(*)c1-c1ccc(OC)cc1` (repeat unit) is 57.00 °C.
For `*OCCOC(=O)CCCCC(=O)OCCOc1nc(-c2ccc(OC)cc2)nc(*)c1-c1ccc(OC)cc1` (repeat unit) the value was 48.00 °C; for `*OCCOC(=O)c1cc(/N=N/c2ccc(OCC)cc2)ccc1-c1ccc(/N=N/c2ccc(OCC)cc2)cc1C(=O)OCCOc1nc(-c2ccc(OCCCC)cc2)nc(*)c1-c1ccc(OC)cc1` (repeat unit), 126.00 °C; for `*Oc1ccc(C(=O)OCCCCCOC(=O)c2ccc(*)cc2)cc1` (repeat unit), 26.00 °C.
For `*c1ccc(-c2ccc(-n3c(-c4ccc(Oc5ccc(C(=O)c6ccc(Oc7ccc(C(=O)c8ccc(Oc9ccc(-c%10nc%11ccccc%11n%10*)cc9)cc8)cc7)cc6)cc5)cc4)nc4ccccc43)cc2)cc1` (repeat unit), the glass transition temperature was 243.00 °C.
With `*c1ccc(C(=O)OCCCCCCCCOc2ccc(/C=C3\CC/C(=C\c4ccc(OCCCCCCCCOC(=O)c5ccc(-c6nnc(*)o6)cc5)cc4)C3=O)cc2)cc1` (repeat unit), the glass transition temperature amounted to 99.00 °C.
For `*c1ccc(C(=O)OCCCCCCOc2ccc(/C=C3\CCC/C(=C\c4ccc(OCCCCCCOC(=O)c5ccc(-c6nnc(*)o6)cc5)cc4)C3=O)cc2)cc1` (repeat unit) the value was 71.00 °C; for `*c1ccc(C(c2ccc(N3C(=O)c4ccc(OCCN(CCOc5ccc6c(c5)C(=O)N(*)C6=O)c5ccc(/C=C/c6ccc([N+](=O)[O-])cc6)cc5)cc4C3=O)cc2)(C(F)(F)F)C(F)(F)F)cc1` (repeat unit), 180.70 °C.
For `*c1ccc(Cc2ccc(N3C(=O)c4ccc(OCCN(CCOc5ccc6c(c5)C(=O)N(*)C6=O)c5ccc(/C=C/c6ccc([N+](=O)[O-])cc6)cc5)cc4C3=O)cc2)cc1` (repeat unit) the value was 160.70 °C; for `*c1ccc(Oc2ccc(-c3csc(/N=C/c4ccc(OCCCCCCOc5ccc(/C=N/c6nc(*)cs6)cc5)cc4)n3)cc2)cc1` (repeat unit), 117.00 °C.
`*c1ccc(Oc2ccc(C(=O)c3ccc(Oc4ccc(-c5nc(-c6cccc(-c7nc(*)c(-c8ccccc8)[nH]7)c6)[nH]c5-c5ccccc5)cc4)cc3)cc2)cc1` (repeat unit) came in with a glass transition temperature of 282.00 °C.
Take `*c1ccc(Oc2ccc(C(=O)c3ccc(Oc4ccc(-c5nc6ccccc6n5-c5ccc(-n6c(*)nc7ccccc76)cc5)cc4)cc3)cc2)cc1` (repeat unit): the glass transition temperature is 242.00 °C.
The compound `*c1ccc(Oc2ccc(C(=O)c3ccc(Oc4ccc(C(=O)c5ccc(Oc6ccc(-c7cc(*)n(-c8ccccc8)n7)cc6)cc5)cc4)cc3)cc2)cc1` (repeat unit) had a glass transition temperature of 190.00 °C.
For `*c1ccc(Oc2ccc(C(=O)c3ccc(Oc4ccc(C(=O)c5ccc(Oc6ccc(-c7nc(-c8ccc(-c9nc(*)c(-c%10ccccc%10)[nH]9)cc8)[nH]c7-c7ccccc7)cc6)cc5)cc4)cc3)cc2)cc1` (repeat unit), the glass transition temperature was found to be 245.00 °C.
